Measured values as given in US20250281540A1, “Methods for Haematopoietic Stem Cell Transplantation” (Ospedale San Raffaele S.r.l., priority 2022, published 2025).

Columns and labels:
WBC, LSK and SLAM HSC [1] = assay: Mobilization protocols in Cd40Ig^−/− mice (PB and BM counts); assay type: in vivo
Excerpt: To investigate the therapeutic potential of M-HSCT, we took advantage of Cd40Ig^−/− mice, which faithfully recapitulate the phenotype of the human primary combined immunodeficiency Hyper IgM Syndrome 1 (HIGM-1; Renshaw, B. R., et al. (1994). J Exp Medicine 180, 1889-1900). Because G-CSF treatment may have a detrimental effect on the BM niche, we investigated the efficiency of mobilization protocols differing for its presence or absence, the G-CSF dose and the duration and combination with other drugs (FIG. 2A).
(§1) Blood samples were also analysed with the hemocytometer Sysmex KX-21N (Block scientific, Sysmex corporation) to quantify absolute numbers.
Different protocols were tested in Cd40Ig^−/− mice: (i) s.c. pump delivering 250 μg/kg/day of G-CSF for 7 days (G7); (ii) s.c. pump delivering 250 μg/kg/day of G-CSF for 7 days, with i.p. injections of AMD3100 (5 mg/kg/day) on day 6 and 7 (G7A); (iii) s.c. pump delivering 250 μg/kg/day of G-CSF for 7 days, with i.p. injections of AMD3100 (5 mg/kg/day) and BIO5192 (1 mg/kg/day) on day 6 and 7 (G7AB); (iv) s.c. pump delivering 125 μg/kg/day of G-CSF for 7 days, with i.p. injections of AMD3100 (5 mg/kg/day) and BIO5192 (1 mg/kg/day) on day 6 and 7 (G7AB-H); (v) G-CSF delivered by i.p. injections (125 μg/kg) every 12 hours for four days, with AMD3100 s.c. injections (5 mg/kg) 14 hours after the last dose of G-CSF (G5A); (vi) G-CSF delivered by i.p. injections (125 μg/kg) every 12 hours for four days, with AMD3100 (5 mg/kg) and BIO5192 (1 mg/kg) s.c. injections 14 hours after the last dose of G-CSF (G5AB); (vii) s.c. pump delivering 250 μg/kg/day of G-CSF for 3 days, with i.p. injections of AMD3100 (5 mg/kg/day) and BIO5192 (1 mg/kg/day) on day 6 and 7 (G3AB); (viii) s.c. pump delivering 125 μg/kg/day of G-CSF for 3 days, with i.p. injections of AMD3100 (5 mg/kg/day) and BIO5192 (1 mg/kg/day) on day 6 and 7 (G3AB-H); and (ix) AMD3100 (5 mg/kg/day) and BIO5192 (1 mg/kg/day) i.p. injected for three days.
Bone marrow vacancy and estimated chimerism were calculated based on the following formulas in Cd40Ig^−/− mice (summarized in table below): • To determine the total number of SLAM HSC per mouse at steady state (FIG. 2G, left panel), lower limbs (which account for 20% of the total BM) were collected in a defined volume and counted, paralleled with their characterization through FACS. We found 2500 SLAM HSC/lower limbs, therefore reaching a total of 12,500 SLAM HSC/mouse (2500*100/20). This number is in accordance with other published papers (Chen, J., et al. (2008). Experimental hematology, 36(10), 1236-1243; Karpova, D., et al. (2017). Blood, 129(21), 2939-2949; and Singh, P., et al. (2020). Stem cells (Dayton, Ohio), 38(7), 849-859). • To determine the total number of SLAM HSC that egressed from the BM post-G7AB mobilization, we examined the BM of mobilized mice. 1100 SLAM HSC were recovered in the lower limbs, reaching a total of 5500 SLAM HSC in the BM of mobilized mice. Therefore, to determine the number of SLAM HSC egressed, the number of SLAM HSC present post-mobilization was subtracted from the total number of SLAM HSC present in the steady state mouse, leading to an assessment of 7000 SLAM HSC egressing from the BM (12500-5500). • The mobilized SLAM HSC/mL was calculated based on the bleeding performed at the peak of mobilization in mobilized mice (FIG. 2G, right panel). The blood was analyzed through hematocytometer (WBC/mL) and FACS staining (% subpopulation). […]

CD45.1 Lin^− donor cells = assay: M-HSCT: donor CD45.1 chimerism after mobilization of CD45.2 recipients; assay type: in vivo, C57BL/6J CD45.2 mice; details: addition of BIO5192 to the G-CSF/AMD3100 protocol (G7AB); 2×10^6 CD45.1 Lin^− cells; PB
Excerpt: To test if these levels of mobilization, and the subsequent BM niche availability, were sufficient to allow engraftment of donor cells, 2×10^6 CD45.1 lineage negative (Lin^−) cells, purified from the BM, were transplanted into CD45.2 congenic recipients after the last injection of AMD3100 or AMD3100/BIO5192 (FIG. 1A, C; FIG. 6D).
Donor mice between 6 and 10 weeks of age were euthanized by CO2, and BM cells were retrieved from femurs, tibias, and humeri. HSPCs were purified by Lin− selection using the mouse Lineage Cell Depletion Kit (Miltenyi Biotec) according to the manufacturer's instructions. Cells were then cultured (for 2 hours or overnight) in serum-free StemSpan medium (StemCell Technologies) containing penicillin, streptomycin, glutamine, and a combination of mouse cytokines (20 ng/ml IL-3, 100 ng/ml SCF, 100 ng/ml Flt-3L, 50 ng/ml TPO all from PeproTech), at a concentration of 2-5×10^6 cells.ml^−1. Purified Lin^− cells were transplanted at a total dose of 2×10^6 cells/mouse into 8 to 12-week-old mobilized mice, three hours after the last injection of AMD3100 and/or Bio5192. Serial collections of blood from the retro-orbital vein were performed to monitor the hematological parameters and donor cell engraftment. At the end of the experiment, BM, thymus and spleen, and lymph nodes were harvested and analyzed.

WBC, LSK and SLAM HSC [2] = assay: Mobilization of WBC, LSK and SLAM HSC into the circulation of C57BL/6J CD45.2 mice; assay type: in vivo; details: addition of BIO5192 to G7A (G7AB)
Procedure: We tested two mobilization regimens in mice, one modeling a clinically approved protocol using G-CSF and AMD3100 (G7A), and the other one also comprising BIO5192 (G7AB). C57BL/6J CD45.2 mice were treated with G-CSF using a subcutaneous pump for a week combined with either AMD3100, or the combination of AMD3100 and BIO5192, delivered intraperitoneally at day 6 and 7 (FIG. 1A; FIG. 6B).
The addition of BIO5192 led to a higher mobilization of WBC, LSK and SLAM HSC, leading to an additional 2-fold increase of SLAM HSC over G7A levels.
as §1

VLA-4 = VLA-4 (Homo sapiens, UniProt P05556+P13612); details: VLA-4 versus α4β7 integrin; Ramirez et al. 2009; cited from earlier work
Sequence of VLA-4 (P13612 34-1032): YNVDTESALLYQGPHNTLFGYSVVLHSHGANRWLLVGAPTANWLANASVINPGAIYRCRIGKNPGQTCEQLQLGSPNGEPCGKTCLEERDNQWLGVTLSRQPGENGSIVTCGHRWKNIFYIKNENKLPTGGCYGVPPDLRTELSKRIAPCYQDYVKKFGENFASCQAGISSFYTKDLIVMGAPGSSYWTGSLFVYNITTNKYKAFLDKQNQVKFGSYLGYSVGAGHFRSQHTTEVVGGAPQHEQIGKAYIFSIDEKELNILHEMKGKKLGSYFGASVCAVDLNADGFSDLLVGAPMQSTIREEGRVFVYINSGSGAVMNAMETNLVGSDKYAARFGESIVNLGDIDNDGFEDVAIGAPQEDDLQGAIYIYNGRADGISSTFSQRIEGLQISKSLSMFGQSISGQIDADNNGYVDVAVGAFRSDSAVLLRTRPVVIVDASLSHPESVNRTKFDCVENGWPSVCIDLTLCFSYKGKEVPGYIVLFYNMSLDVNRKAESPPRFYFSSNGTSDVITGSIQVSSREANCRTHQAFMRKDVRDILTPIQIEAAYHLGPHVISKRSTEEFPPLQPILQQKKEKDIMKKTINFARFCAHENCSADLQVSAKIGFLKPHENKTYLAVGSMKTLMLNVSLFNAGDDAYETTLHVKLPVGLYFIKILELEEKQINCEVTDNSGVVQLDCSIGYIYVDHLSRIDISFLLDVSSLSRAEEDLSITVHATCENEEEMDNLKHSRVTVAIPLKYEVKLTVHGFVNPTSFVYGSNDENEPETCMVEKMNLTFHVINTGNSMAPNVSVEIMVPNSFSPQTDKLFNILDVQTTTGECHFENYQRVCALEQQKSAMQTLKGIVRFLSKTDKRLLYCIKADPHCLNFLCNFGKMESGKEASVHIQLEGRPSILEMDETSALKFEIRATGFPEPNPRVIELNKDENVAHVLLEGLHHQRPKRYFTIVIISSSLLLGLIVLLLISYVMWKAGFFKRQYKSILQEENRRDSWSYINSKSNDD
Sequence of VLA-4 (P05556 21-798): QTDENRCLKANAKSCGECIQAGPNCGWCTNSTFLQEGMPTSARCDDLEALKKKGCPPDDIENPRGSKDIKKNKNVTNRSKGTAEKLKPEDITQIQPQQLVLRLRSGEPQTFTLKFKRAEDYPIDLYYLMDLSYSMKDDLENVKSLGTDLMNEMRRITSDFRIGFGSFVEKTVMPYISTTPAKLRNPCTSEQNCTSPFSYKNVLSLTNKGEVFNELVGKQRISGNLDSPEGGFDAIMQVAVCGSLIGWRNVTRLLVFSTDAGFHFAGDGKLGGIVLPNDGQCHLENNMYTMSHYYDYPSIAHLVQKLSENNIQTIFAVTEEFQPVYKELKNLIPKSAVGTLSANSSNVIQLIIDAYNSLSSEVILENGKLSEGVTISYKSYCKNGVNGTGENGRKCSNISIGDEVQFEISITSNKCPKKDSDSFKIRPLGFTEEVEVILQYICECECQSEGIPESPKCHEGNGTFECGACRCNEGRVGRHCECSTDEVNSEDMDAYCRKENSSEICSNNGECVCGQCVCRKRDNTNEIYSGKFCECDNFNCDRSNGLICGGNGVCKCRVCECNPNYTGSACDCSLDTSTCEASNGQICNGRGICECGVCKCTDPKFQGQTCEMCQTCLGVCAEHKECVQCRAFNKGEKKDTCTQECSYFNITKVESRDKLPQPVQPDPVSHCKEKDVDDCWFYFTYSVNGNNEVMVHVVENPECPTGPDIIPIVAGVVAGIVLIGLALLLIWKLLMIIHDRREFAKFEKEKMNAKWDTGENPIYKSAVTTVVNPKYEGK

[3] = system: GFP+ cells within the hCD45+ population; assay: M-HSCT in hematochimeric mice with drug-resistant CXCR4 variant; AMD3465 protocol; assay type: in vivo, NSGW41 or NBSGW mice
Excerpt: FIG. 12. […] NSGW41 or NBSGW mice were humanized with human mobilized peripheral blood CD34+ cells until 10% chimerism was achieved. Mice were then mobilized with G-CSF for 7 days through subcutaneous pump implantations and with two injections of AMD3100 and BIO5192 at day 6 and 7. For the second transplant, GFP lentiviral vector-transduced cells from the same donor used to humanize the mice were electroporated with either CXCR4 wild type or CXCR4^D262N variant. The donor cells were then transplanted either at 3 h or immediately after the last injection of AMD3100. • (B) Human chimerism over time after mobilization, expressed as % of human CD45+ cells present in peripheral blood (right panel), and exchange efficiency (left panel) expressed as % of GFP+ cells within the hCD45+ population. CXCR4 Var=CXCR4 D262N. • (C) Mobilization efficiency of the standard protocol (G7AB) or the modified protocol with AMD3465 (G7AB*) measured as white blood cell count (WBC, left panel), and human CD34+CD38− cells (right panel). • (D) Human chimerism over time after mobilization, expressed as % of hCD45+ cells in peripheral blood (right panel), and exchange efficiency (left panel) expressed as % of GFP+ cells within the hCD45+ population. […]

MMP9 = assay: ELISA on BM extracellular extracts, MMP9; assay type: in vivo, Cd40Ig^−/− mice
Procedure: (§2) For ELISA performed on BM matrix, femurs and tibias were repeatedly flushed with 1 mL of cold PBS. Cells were pelleted by centrifugation at 300 g for 10 minutes at 4° C., supernatant was then collected and stored at −80° C. ELISA has been performed following manufacturer instruction after a 1:100 dilution with 1× Assay Diluent for MMP9 (Thermo Scientific) or on undiluted BM matrix for CXCL12 (Sigma-Aldrich).

CXCL12 = assay: ELISA on BM extracellular extracts, CXCL12; assay type: in vivo, Cd40Ig^−/− mice
Procedure: as §2

**Q.** Which “increase of mobilized LSK” value (WBC, LSK and SLAM HSC [1]; addition of AMD3100 to the standard G-CSF treatment) does the source give for c1cc(CN2CCCNCCNCCCNCC2)ccc1CN1CCCNCCNCCCNCC1 [AMD3100, plerixafor] here?
**A.** 3 fold

**Q.** And the “time of peak of mobilization of WBC, LSK and SLAM HSC” value (WBC, LSK and SLAM HSC [1]; post injection, PB analysis)?
**A.** around 3 hours

**Q.** Which “donor chimerism, median” value (CD45.1 Lin^− donor cells) does the source give for Cc1ccccc1NC(=O)Nc1ccc(CC(=O)N(C)[C@@H](CC(C)C)C(=O)NCC[C@H](NC(=O)[C@@H]2CCCN2S(=O)(=O)c2cc(Cl)cc(Cl)c2)C(=O)O)cc1 [BIO5192] here?
**A.** 30%

**Q.** And the “additional increase of SLAM HSC over G7A levels” value (WBC, LSK and SLAM HSC [2])?
**A.** 2 fold

**Q.** What about the “further increase of mobilized LSK” value (WBC, LSK and SLAM HSC [1]; BIO5192 added to G-CSF and AMD3100) of the same molecule?
**A.** 5 fold

**Q.** And the “affinity for VLA-4 higher than for the related α4β7 integrin” value (VLA-4)?
**A.** 250- to 1000 fold

**Q.** What does the source list for c1ccc(CNCc2ccc(CN3CCCNCCNCCCNCC3)cc2)nc1 [AMD3465]?
**A.** exchange efficiency ([3]; AMD3100 or AMD3465, donor cells transplanted at the peak of mobilization): remained unchanged; mobilization efficiency ([3]; AMD3465 compared to AMD3100 in the standard protocol with G-CSF and BIO5192): not affected

B1: G-CSF: granulocyte colony-stimulating factor (Lenograstim) delivered by osmotic pump (protein, UniProt P09919 31-207, looked up)
Granulocyte …: TPLGPASSLPQSFLLKCLEQVRKIQGDGAALQEKLVSECATYKLCHPEELVLLGHSLGIPWAPLSSCPSQALQLAGCLSQLHSGLFLYQGLLQALEGISPELGPTLDTLQLDVADFATTIWQQMEELGMAPALQPTQGAMPAFASAFQRRAGGVLVASHLQSFLEVSYRVLRHLAQP
**Q.** Which results are given for B1?
**A.** MMP9 in the BM stroma (MMP9): increased; blood neutrophils and monocytes counts (WBC, LSK and SLAM HSC [1]; PB after mobilization protocols): highly increased; level of CXCR4 expression on circulating SLAM HSC (WBC, LSK and SLAM HSC [1]; with versus without G-CSF mobilization): lower; CXCL12 in the BM stroma (CXCL12): decreased
